Kd and remaining activity data for five compounds are collected here from doi:10.1101/2022.01.05.475007v1 (biorxiv, 2022).

Experiment [1] addresses T1, Sirt3 (hSirt3 118-399) (Homo sapiens, UniProt Q9NTG7).
T1 sequence (Q9NTG7 118-399): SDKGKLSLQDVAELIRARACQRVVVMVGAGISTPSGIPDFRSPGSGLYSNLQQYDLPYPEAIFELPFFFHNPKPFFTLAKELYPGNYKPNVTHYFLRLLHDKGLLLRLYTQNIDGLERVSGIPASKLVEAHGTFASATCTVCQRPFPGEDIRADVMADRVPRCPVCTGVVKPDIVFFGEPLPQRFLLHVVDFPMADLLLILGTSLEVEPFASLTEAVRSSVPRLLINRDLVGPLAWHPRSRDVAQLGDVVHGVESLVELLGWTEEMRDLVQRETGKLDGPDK
Description: switchSENSE kinetics. Format: binding. Particulars: absence of cofactors; HDAC buffer, 5% DMSO, 25 °C.

Experiment [2] addresses T1, Sirt3 (hSirt3 118-399). The experiment is described as follows: fluorescence deacetylation assay. Format: biochemical. Particulars: read-out: % control at 10 μM.

For `CCCCNC(=O)COc1ccc2c(c1)CCc1ccccc1C2NC(=O)CCCOc1cc([N+](=O)[O-])c(C(C)O)cc1OC` (centres unmarked) [AA8AC40], on Sirt3 (hSirt3 118-399) [1], the affinity, expressed as Kd, was 4.56 ± 3.5 µM. For the compound `CCCCNC(=O)COc1ccc2c(c1)CCc1ccccc1C2NC(=O)CSC(=S)c1ccccc1` (centres unmarked) [AA8AC71], the remaining activity at 10 µM at Sirt3 (hSirt3 118-399) [2] came out at 72.4%.

On to `C=C(CC)C(=O)c1ccc(OCC(=O)NC2c3ccccc3CCc3cc(OCC(=O)NCCCC)ccc32)c(Cl)c1Cl` (centres unmarked) [AA8AC92], for which, on Sirt3 (hSirt3 118-399) [2], the remaining activity at 10 µM came to 75.7%.

With `CCCCNC(=O)[C@@H](Cc1ccc(Cl)cc1)NC(=O)CSC(=S)c1ccccc1` [AA12AC71], the remaining activity at 10 µM at Sirt3 (hSirt3 118-399) [2] came to 76.5%. In the case of `C=C(CC)C(=O)c1ccc(OCC(=O)N[C@H](Cc2ccc(Cl)cc2)C(=O)NCCCC)c(Cl)c1Cl` [AA12AC92], the remaining activity at 10 µM on Sirt3 (hSirt3 118-399) [2] was found to be 83.1%.
